In US5973228A, “Coniferin beta-glucosidase cDNA for modifying lignin content in plants” (University of British Columbia, priority 1998, dated 1999):

Experiments:
[1] = target: T1, native coniferin beta-glucosidase (CBG) purified from pine xylem (Pinus contorta, UniProt Q9ZT64); assay: β-glucosidase assay, substrate specificity of coniferin β-glucosidase purified from pine xylem; format: biochemical; settings: substrate hydrolysis relative to coniferin; 100% activity represents 14pKat; 2 mM glucoside substrate, 0.2M MES pH 5.5, 30° C., 30 min
T1 construct: from tissue; host or cells: Pinus contorta xylem
T1 sequence (Q9ZT64 24-513): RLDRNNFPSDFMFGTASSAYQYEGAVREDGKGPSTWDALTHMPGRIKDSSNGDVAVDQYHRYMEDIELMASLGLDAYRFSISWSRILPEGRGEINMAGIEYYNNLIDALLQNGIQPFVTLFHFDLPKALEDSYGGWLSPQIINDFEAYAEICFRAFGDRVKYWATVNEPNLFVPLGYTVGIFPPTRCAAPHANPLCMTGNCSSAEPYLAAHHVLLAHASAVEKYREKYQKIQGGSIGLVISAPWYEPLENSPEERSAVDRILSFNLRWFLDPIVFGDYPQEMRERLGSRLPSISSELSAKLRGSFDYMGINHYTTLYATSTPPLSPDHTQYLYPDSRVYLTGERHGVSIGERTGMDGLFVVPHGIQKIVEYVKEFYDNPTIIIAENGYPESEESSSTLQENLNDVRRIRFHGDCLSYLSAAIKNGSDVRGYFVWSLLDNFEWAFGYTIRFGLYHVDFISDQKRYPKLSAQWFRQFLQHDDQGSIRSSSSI
From the text: Coniferin beta-glucosidase enzyme was purified from Pinus contorta xylem tissue as described by Dharmwardhana et al. (1995). In order to determine the N-terminal amino acid sequence of the purified enzymne, it was run on native PAGE gels, stained for activity on the synthetic coniferin substrate VRA-G and the staining band excised and subjected to SDS-PAGE. The protein was then transferred to an Immobilon membrane for N-terminal amino acid sequencing using an Applied Biosystems 470A gas phase sequencer (Edman degradation).
(§1) As noted above, the functional characteristic of the CBG enzyme is its ability to hydrolyze coniferin. This activity can be measured using the simple β-glucosidase assay described by Dharwardhana et al. (1995), conducted as follows: enzyme preparations (10-50 μl) and glucoside substrate (coniferin) (2 mM final concentration) in 0.2M MES, pH 5.5 buffer in a final volume of 150 μl are incubated at 30° C. for 30 min. The reaction is stopped by basification of the assay mixture with an equal volume of 0.5M CAPS buffer (Sigma Chemical Co., St. Louis, Mo., pH 10.5 and the activity measured by determining the absorbance of the released aglycone. The activity of the enzyme can be measured not only against coniferin, but also against related glucosides including 4-NPG, 2-NPG, MUG and the synthetic coniferin analog VRA-G. For quantitative calculations, the following analysis wavelengths and values (mM^-1 ×cm^-1) were used: coniferyl alcohol, 325 nm, ε=7.0; sinapyl alcohol, 315 nm, ε=11.2; 2-nitrophenol, 420 nm, ε=4.55, 4-nitrophenol, 400 nm, ε=19.3; 4-methyl umbelliferone, 360 nm, ε=18.25; VRA-G, 490 nm, ε=38.6; salicyl alcohol, 295 nm, ε=3.3.

[2] = target: T2, E. coli-expressed (recombinant) coniferin beta-glucosidase (CBG) (Pinus contorta, UniProt Q9ZT64); assay: β-glucosidase assay, substrate specificity of E. coli-expressed CBG-cDNA; format: biochemical; settings: substrate hydrolysis relative to coniferin; 100% activity represents 22pKat; 2 mM glucoside substrate, 0.2M MES pH 5.5, 30° C., 30 min
T2 construct: coding region for the mature protein (i.e. excluding the signal peptide) was amplified; Met-Ala-Ser (three non-CBG vector residues) (N); made in house; host or cells: E. coli BL21 (DE3), vector pET21a
T2 sequence (Q9ZT64 24-513): T1 sequence (Q9ZT64 24-513)
From the text: To express CBG protein in E. coli, the full- length coding region for the mature protein (i.e. excluding the signal peptide) was amplified using the 3' end clone (1A6) as the template with the N-terminal primer, NT1 (5' […] 3', Seq. I.D. No. 9) containing a 5' Nhe1 site, and a C-terminal primer, CT1 (5' […] 3', Seq. I.D. No. 10) containing a Xho 1 site. The resulting 1.5 kb DNA fragment was ligated into Bluescript II KS by T/A cloning as described above. The structure of the junctions of this construct was confirmed by sequencing and it was then inserted as a Nhe1/Xho1 fragment into expression vector pET21a (Novagen). Because, the Nhe1 site was used to introduce the cDNA into the pET vector, three non-CBG amino acids (Met, Ala, Ser) were added to the N-terminus of the expressed protein. To avoid the expression of the vector His-tag at the 3' end, the native stop codon of CBG was included. The expressed protein was thus identical in sequence to the mature CBG expressed in planta, except for the additional tripeptide at the N-terminus. Following transformation into E.coli strain DH5α and verification of the plasmid integrity by restriction digestion, it was introduced into the expression host BL21 (DE3).
To express CBG, the bacteria were grown to log phase (A600 =0.6-0.9) followed by an additional 2-3 h incubation at 29-37° C. in the presence or absence of 0.4-1 mM IPTG. The expressed CBG in the soluble protein fraction was purified by preparative Q-Sepharose chromatography followed by QMA-Memsep (Millipore) chromatography.
as §1
Soluble proteins and insoluble proteins (inclusion bodies) prepared from induced and uninduced bacterial cells were assayed for coniferin hydrolysis activity by the method described above. […] The activity in this fraction could be increased up to 2-fold by increasing the IPTG concentration from 0.4 -1.0 mM, and by reducing the growing temperature from 37° C. to 29° C. […] This protein was purified by anion exchange chromatography using coniferin as the substrate for monitoring β-glucosidase activity. The purified enzyme often migrated as a doublet on nondenaturing gels. […] The latter would result in the synthesis of a polypeptide that is truncated at the N-terminus, as opposed to the full-length polypeptide initiated by ribosome binding to the standard ribosome binding site in the vector.

Row | SMILES | Relative activity, Native CBG [1] [%] | Relative activity, E. coli CBG [2] [%]
1 | COc1cc(/C=C/CO)cc(OC)c1O[C@@H]1O[C@H](CO)[C@@H](O)[C@H](O)[C@H]1O [syringin] | 51 | 65
2 | COc1cc(/C=C/CO)ccc1O[C@@H]1O[C@H](CO)[C@@H](O)[C@H](O)[C@H]1O [coniferin] | 100 | 100
3 | O=[N+]([O-])c1ccccc1O[C@@H]1O[C@H](CO)[C@@H](O)[C@H](O)[C@H]1O [2-nitrophenyl-β-glucoside, 2-nitrophenyl β-glucoside] | 51 | 50
4 | Cc1cc(=O)oc2cc(O[C@@H]3O[C@H](CO)[C@@H](O)[C@H](O)[C@H]3O)ccc12 [4-methyl umbelliferyl-β-glucoside, 4-methylumbelliferyl β-glucoside] | 18 | 20
5 | O=[N+]([O-])c1ccc(O[C@@H]2O[C@H](CO)[C@@H](O)[C@H](O)[C@H]2O)cc1 [4-nitrophenyl-β-glucoside, 4-nitrophenyl β-glucoside] | 30 | 35
